This is an account of results in ChEMBL document CHEMBL3045392, “Synthesis and fungicidal evaluation of some new anilinopyrimidine derivatives” (2013).

Common to all, as to type: functional
Test [1] has as its system Aspergillus niger. Description: Fungicidal activity against Aspergillus niger assessed as time required for hyphae to burst at 2.5 ug/ml.
Test [2] concerns Aspergillus niger. Put plainly: Fungicidal activity against Aspergillus niger assessed as growth inhibition at 10 ug/ml after 7 days. As to conditions: 168 h, read-out: IZ.
The test system of test [3] is Aspergillus niger. Description: Fungicidal activity against Aspergillus niger assessed as growth inhibition at 50 ug/ml after 7 days. As to conditions: 168 h, read-out: IZ.
Test [4] relates to Aspergillus niger. Description: Fungicidal activity against Aspergillus niger assessed as growth inhibition at 1000 ug/ml after 7 days. As to conditions: 168 h, read-out: IZ.
The test system of test [5] is Aspergillus niger. Description: Fungicidal activity against Aspergillus niger assessed as time required for hyphae to burst at 5 ug/ml.
For test [6], the system named is Aspergillus niger. Put plainly: Fungicidal activity against Aspergillus niger assessed as growth inhibition at 100 ug/ml after 7 days. As to conditions: 168 h, read-out: IZ.
The subject of test [7] is Aspergillus niger. Put plainly: Fungicidal activity against Aspergillus niger assessed as time required for hyphae to burst at 7.5 ug/ml.
In test [8] the test system is Aspergillus niger. Description: Fungicidal activity against Aspergillus niger assessed as time required for hyphae to burst at 10 ug/ml.

The structures appear in SMILES notation.

Consider `Cc1cc(C)nc(Nc2ccccc2)n1` [PYRIMETHANIL], for which the Time amounted to 12 s in the test with Aspergillus niger [1], 21 s with Aspergillus niger [5], 39 s in the test on Aspergillus niger [7] and 56 s in the test on Aspergillus niger [8]. Further, in the test on Aspergillus niger [2], the zone of inhibition at 10 µg/mL was determined as 2.6 mm. Further, the zone of inhibition at 50 µg/mL in the test with Aspergillus niger [3] stood at 2.9 mm. For the same compound, the zone of inhibition at 1000 µg/mL with Aspergillus niger [4] turned out to be 4 mm. Also, the zone of inhibition at 100 µg/mL with Aspergillus niger [6] is 3.2 mm.

With `CC(=O)N(c1ccccc1)c1nc(C)cc(C)n1` [N-ACETYL PYRIMETHANIL], the Time is listed as 9 s in the test with Aspergillus niger [1], 18 s with Aspergillus niger [5], 32 s in the test on Aspergillus niger [7] and 51 s with Aspergillus niger [8]. The zone of inhibition at 10 µg/mL with Aspergillus niger [2] came to 2.1 mm. For the same compound, the zone of inhibition at 50 µg/mL with Aspergillus niger [3] stood at 2.4 mm. For the same compound, the zone of inhibition at 1000 µg/mL with Aspergillus niger [4] was determined as 3.4 mm. The zone of inhibition at 100 µg/mL in the test on Aspergillus niger [6] was found to be 2.7 mm.

In the case of `Cc1cc(CBr)nc(Nc2ccccc2)n1`, the zone of inhibition at 10 µg/mL in the test with Aspergillus niger [2] was 1.5 mm. In addition, the zone of inhibition at 50 µg/mL in the test on Aspergillus niger [3] turned out to be 1.9 mm. In the test on Aspergillus niger [4], the zone of inhibition at 1000 µg/mL stood at 2.2 mm. Besides, in the test with Aspergillus niger [6], the zone of inhibition at 100 µg/mL was found to be 2 mm.

Turning to `Cc1nc(Nc2ccccc2)nc(C)c1Br`, the zone of inhibition at 10 µg/mL in the test with Aspergillus niger [2] is 1.6 mm. Also, the zone of inhibition at 50 µg/mL in the test with Aspergillus niger [3] worked out at 2.1 mm. Moreover, the zone of inhibition at 1000 µg/mL in the test on Aspergillus niger [4] was 2.9 mm. In addition, in the test with Aspergillus niger [6], the zone of inhibition at 100 µg/mL turned out to be 2.5 mm.

Consider `Cc1nc(Nc2ccccc2)nc(C)c1C#N`, for which the zone of inhibition at 10 µg/mL in the test on Aspergillus niger [2] was determined as 1.4 mm. Moreover, in the test with Aspergillus niger [3], the zone of inhibition at 50 µg/mL is 1.7 mm. Besides, the zone of inhibition at 1000 µg/mL in the test on Aspergillus niger [4] is 2.5 mm. The zone of inhibition at 100 µg/mL with Aspergillus niger [6] came to 1.9 mm.

For the compound `Cc1nc(Nc2ccccc2)nc2c1C(=N)C(C#N)CN(C(=O)c1ccccc1)C2` (configuration not stated), the zone of inhibition at 10 µg/mL in the test on Aspergillus niger [2] came to 1 mm. For the same compound, the zone of inhibition at 50 µg/mL in the test on Aspergillus niger [3] came out at 1.02 mm. Also, in the test with Aspergillus niger [4], the zone of inhibition at 1000 µg/mL worked out at 2.1 mm. The zone of inhibition at 100 µg/mL with Aspergillus niger [6] was found to be 1.33 mm.
